The values below come from patent US9321760B2 (Merck Patent GmbH, priority 2011, dated 2016).

This test deals with P70S6K (T412E mutant) (Homo sapiens (Human), UniProt P23443, T412E). In words: P70S6K enzyme assay. It is filed as biochemical. To be noted: 3 nM P70S6K T412E mutant, 24 μM ATP, 1 μM FITC-AHA-AKRRRLSSLRA-OH substrate peptide, 90 min at 25° C. A digest of the protocol: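 IC50s come from mobility-shift separation of phospho-product from FITC-AHA-AKRRRLSSLRA-OH substrate (1 μM) after the reaction was quenched with 10 mM EDTA. The reaction used 3 nM T412E-mutant enzyme and 24 μM ATP, running 90 min at 25° C in 100 mM Hepes pH 7.5 buffer.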

Each structure is given as a SMILES string.

Sequence of P70S6K (T412E mutant) (P23443 whole entry T412E): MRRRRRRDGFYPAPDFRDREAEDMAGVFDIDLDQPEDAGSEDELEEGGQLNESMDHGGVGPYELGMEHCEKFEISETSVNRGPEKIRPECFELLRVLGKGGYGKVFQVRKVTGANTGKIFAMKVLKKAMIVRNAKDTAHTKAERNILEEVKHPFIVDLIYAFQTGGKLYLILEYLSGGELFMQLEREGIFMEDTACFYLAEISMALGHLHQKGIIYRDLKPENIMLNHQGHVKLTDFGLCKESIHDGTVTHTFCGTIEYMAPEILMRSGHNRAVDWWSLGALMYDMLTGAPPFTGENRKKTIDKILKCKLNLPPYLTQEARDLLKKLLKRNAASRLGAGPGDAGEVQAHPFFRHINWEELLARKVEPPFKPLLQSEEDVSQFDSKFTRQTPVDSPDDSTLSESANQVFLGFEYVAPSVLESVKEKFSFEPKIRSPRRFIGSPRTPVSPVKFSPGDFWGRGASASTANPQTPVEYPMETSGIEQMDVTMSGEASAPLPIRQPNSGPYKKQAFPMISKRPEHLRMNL

What is called IC50 is the concentration that inhibits the measured activity by half. Lower therefore signals inhibition by little substance. `COc1ccc(C(CN2CCC2)N2CCN(c3ncnc(N)c3-c3cn[nH]c3)CC2)cc1F` (stereo not drawn) [Example 95, 6-{4-[2-Azetidin-1-yl-1-(3-fluoro-4-methoxy-phenyl)-ethyl]-piperazin-1-yl}-5-(1H-pyrazol-4-yl)-pyrimidin-4-ylamine] gave an IC50 of 3.5 µM.
The value for `COC(=O)c1ccc(C(CN2CCC2)N2CCN(c3ncnc(N)c3-c3ccc(F)cc3)CC2)cc1` (stereo not drawn) [Example 96, 4-(1-{4-[6-Amino-5-(4-fluoro-phenyl)-pyrimidin-4-yl]-piperazin-1-yl}-2-azetidin-1-yl-ethyl)-benzoic acid methyl ester] was 0.14 µM; that for `N#Cc1cccc([C@@H](CN2CCC2)N2CCN(c3ncnc(N)c3-c3cn[nH]c3)CC2)c1` [Example 97, 3-((S)-1-{4-[6-Amino-5-(1H-pyrazol-4-yl)-pyrimidin-4-yl]-piperazin-1-yl}-2-azetidin-1-yl-ethyl)-benzonitrile] was 3.7 µM; that for `Nc1ncnc(N2CCN([C@H](CN3CCC3)c3ccc4c(c3)OCCO4)CC2)c1-c1ccc(F)cc1` [Example 98, 6-{4-[(S)-2-Azetidin-1-yl-1-(2,3-dihydro-benzo[1,4]dioxin-6-yl)-ethyl]-piperazin-1-yl}-5-(4-fluoro-phenyl)-pyrimidin-4-ylamine] was 0.26 µM.
The value for `Nc1ncnc(N2CCN(C(CN3CCC3)c3cccc(C(F)(F)F)c3F)CC2)c1-c1cn[nH]c1` (stereo not drawn) [Example 99, 6-{4-[2-Azetidin-1-yl-1-(2-fluoro-3-trifluoromethyl-phenyl)-ethyl]-piperazin-1-yl}-5-(1H-pyrazol-4-yl)-pyrimidin-4-ylamine] was 0.67 µM.
The value for `Cc1ccc(C(CN2CCC2)N2CCN(c3ncnc(N)c3-c3cn[nH]c3)CC2)c(F)c1F` (stereo not drawn) [Example 100, 6-{4-[2-Azetidin-1-yl-1-(2,3-difluoro-4-methyl-phenyl)-ethyl]-piperazin-1-yl}-5-(1H-pyrazol-4-yl)-pyrimidin-4-ylamine] was 0.9 µM; that for `Nc1ncnc(N2CCN(C(CN3CCC3)c3ccc(F)c(C(F)(F)F)c3)CC2)c1-c1cn[nH]c1` (stereo not drawn) [Example 101, 6-{4-[2-Azetidin-1-yl-1-(4-fluoro-3-trifluoromethyl-phenyl)-ethyl]-piperazin-1-yl}-5-(1H-pyrazol-4-yl)-pyrimidin-4-ylamine] was 3.8 µM; that for `Nc1ncnc(N2CCN([C@H](CN3CCC3)c3cccc(F)c3)CC2)c1-c1ccc(F)cc1` [Example 102, 6-{4-[(S)-2-Azetidin-1-yl-1-(3-fluoro-phenyl)-ethyl]-piperazin-1-yl}-5-(4-fluoro-phenyl)-pyrimidin-4-ylamine] was 1.4 µM.
In turn, `Nc1ncnc(N2CCN([C@@H](CN3CCC3)c3cccc(F)c3)CC2)c1-c1ccc(F)cc1` [Example 103, 6-{4-[(R)-2-Azetidin-1-yl-1-(3-fluoro-phenyl)-ethyl]-piperazin-1-yl}-5-(4-fluoro-phenyl)-pyrimidin-4-ylamine] gave an IC50 of 0.92 µM.
The compound `COc1ccc([C@H](CN2CCC2)N2CCN(c3ncnc(N)c3-c3ccc(F)cc3)CC2)cc1F` [Example 104, 6-{4-[(R)-2-Azetidin-1-yl-1-(3-fluoro-4-methoxy-phenyl)-ethyl]-piperazin-1-yl}-5-(4-fluoro-phenyl)-pyrimidin-4-ylamine] registered an IC50 of 0.92 µM.
The same measure for `COc1ccc([C@@H](CN2CCC2)N2CCN(c3ncnc(N)c3-c3ccc(F)cc3)CC2)cc1F` [Example 105, 6-{4-[(S)-2-Azetidin-1-yl-1-(3-fluoro-4-methoxy-phenyl)-ethyl]-piperazin-1-yl}-5-(4-fluoro-phenyl)-pyrimidin-4-ylamine]: 0.64 µM; for `N#Cc1ccc(C(CN2CCC2)N2CCN(c3ncnc(N)c3-c3ccc(F)cc3)CC2)cc1` (stereo not drawn) [Example 106, 4-(1-{4-[6-Amino-5-(4-fluoro-phenyl)-pyrimidin-4-yl]-piperazin-1-yl}-2-azetidin-1-yl-ethyl)-benzonitrile]: 0.32 µM.
For the compound `Nc1ncnc(N2CCN([C@@H](CN3CCC3)c3ccc4c(c3)OCCO4)CC2)c1-c1cn[nH]c1` [Example 107, 6-{4-[(R)-2-Azetidin-1-yl-1-(2,3-dihydro-benzo[1,4]dioxin-6-yl)-ethyl]-piperazin-1-yl}-5-(1H-pyrazol-4-yl)-pyrimidin-4-ylamine], the midpoint of inhibition, the IC50, lay at 5.2 µM.
The value for `Nc1ncnc(N2CCN([C@H](CN3CCC3)c3ccc4c(c3)OCCO4)CC2)c1-c1cn[nH]c1` [Example 108, 6-{4-[(S)-2-Azetidin-1-yl-1-(2,3-dihydro-benzo[1,4]dioxin-6-yl)-ethyl]-piperazin-1-yl}-5-(1H-pyrazol-4-yl)-pyrimidin-4-ylamine] was 3.7 µM; that for `Cc1cc(C(CN2CCC2)N2CCN(c3ncnc(N)c3-c3cn[nH]c3)CC2)ccc1Cl` (stereo not drawn) [Example 109, 6-{4-[2-Azetidin-1-yl-1-(4-chloro-3-methyl-phenyl)-ethyl]-piperazin-1-yl}-5-(1H-pyrazol-4-yl)-pyrimidin-4-ylamine] was 1.9 µM.
Consider `COC(=O)c1ccc([C@@H](CN2CCC2)N2CCN(c3ncnc(N)c3-c3ccc(F)cc3)CC2)cc1` [Example 110, 4-((S)-1-{4-[6-Amino-5-(4-fluoro-phenyl)-pyrimidin-4-yl]-piperazin-1-yl}-2-azetidin-1-yl-ethyl)-benzoic acid methyl ester], for which it took 0.45 µM to reach half-maximal inhibition (IC50).
The same measure for `COC(=O)c1ccc([C@H](CN2CCC2)N2CCN(c3ncnc(N)c3-c3ccc(F)cc3)CC2)cc1` [Example 111, 4-((R)-1-{4-[6-Amino-5-(4-fluoro-phenyl)-pyrimidin-4-yl]-piperazin-1-yl}-2-azetidin-1-yl-ethyl)-benzoic acid methyl ester]: 0.19 µM; for `Nc1ncnc(N2CCN(C(CCN3CCC3)c3ccc(Cl)cc3)CC2)c1-c1ccc(F)cc1` (stereo not drawn) [Example 112, 6-{4-[3-Azetidin-1-yl-1-(4-chloro-phenyl)-propyl]-piperazin-1-yl}-5-(4-fluoro-phenyl)-pyrimidin-4-ylamine]: 0.46 µM; for `Nc1ncnc(N2CCN(C(CCCN3CCC3)c3ccc(Cl)cc3)CC2)c1-c1ccc(F)cc1` (stereo not drawn) [Example 113, 6-{4-[4-Azetidin-1-yl-1-(4-chloro-phenyl)-butyl]-piperazin-1-yl}-5-(4-fluoro-phenyl)-pyrimidin-4-ylamine]: above 1 µM.
For the compound `Nc1ncnc(N2CCN(C(CN3CCC3)c3ccc(F)c(OC(F)(F)F)c3)CC2)c1-c1cn[nH]c1` (stereo not drawn) [Example 114, 6-{4-[2-Azetidin-1-yl-1-(4-fluoro-3-trifluoromethoxy-phenyl)-ethyl]-piperazin-1-yl}-5-(1H-pyrazol-4-yl)-pyrimidin-4-ylamine], the IC50 is 3.3 µM.
The same measure for `Nc1ncnc(N2CCN(C(CN3CCC3)c3ccc4c(c3)CCCC4)CC2)c1-c1ccc(N2CCNCC2)nc1` (stereo not drawn) [Example 115, 6-{4-[2-Azetidin-1-yl-1-(5,6,7,8-tetrahydro-naphthalen-2-yl)-ethyl]-piperazin-1-yl}-5-(6-piperazin-1-yl-pyridin-3-yl)-pyrimidin-4-ylamine]: above 100 µM; for `Nc1ncnc(N2CCN(C(CN3CCC3)c3ccc(-n4ccnc4)cc3)CC2)c1-c1ccc(F)cc1` (stereo not drawn) [Example 116, 6-{4-[2-Azetidin-1-yl-1-(4-imidazol-1-yl-phenyl)-ethyl]-piperazin-1-yl}-5-(4-fluoro-phenyl)-pyrimidin-4-ylamine]: 0.29 µM.
`CCOC(=O)Cn1cc(-c2c(N)ncnc2N2CCN(C(CN3CCC3)c3ccc(Cl)c(Cl)c3)CC2)cn1` (stereo not drawn) [Example 117, [4-(4-Amino-6-{4-[2-azetidin-1-yl-1-(3,4-dichloro-phenyl)-ethyl]-piperazin-1-yl}-pyrimidin-5-yl)-pyrazol-1-yl]-acetic acid ethyl ester] displayed a concentration for half-maximal inhibition (IC50) of 24 µM.
The same measure for `Nc1ncnc(N2CCN(C(CN3CCC3)c3ccc4[nH]c(=O)sc4c3)CC2)c1-c1ccc(F)cc1` (stereo not drawn) [Example 118, 6-(1-{4-[6-Amino-5-(4-fluoro-phenyl)-pyrimidin-4-yl]-piperazin-1-yl}-2-azetidin-1-yl-ethyl)-3H-benzothiazol-2-one]: 0.14 µM.
The same measure for `CCOC(=O)Cn1cc(-c2c(N)ncnc2N2CCN(C(CN3CCC3)c3ccc4c(c3)CCCC4)CC2)cn1` (stereo not drawn) [Example 119, [4-(4-Amino-6-{4-[2-azetidin-1-yl-1-(5,6,7,8-tetrahydro-naphthalen-2-yl)-ethyl]-piperazin-1-yl}-pyrimidin-5-yl)-pyrazol-1-yl]-acetic acid ethyl ester]: 22 µM; for `Nc1ncnc(N2CCN(C(CN3CCC3)c3ccc(C(F)(F)F)cc3F)CC2)c1-c1cn[nH]c1` (stereo not drawn) [Example 120, 6-{4-[2-Azetidin-1-yl-1-(2-fluoro-4-trifluoromethyl-phenyl)-ethyl]-piperazin-1-yl}-5-(1H-pyrazol-4-yl)-pyrimidin-4-ylamine]: 1.1 µM.
For `Nc1ncnc(N2CCN(C(CN3CCC3)c3ccc(Cl)c(F)c3)CC2)c1-c1cn[nH]c1` (stereo not drawn) [Example 121, 6-{4-[2-Azetidin-1-yl-1-(4-chloro-3-fluoro-phenyl)-ethyl]-piperazin-1-yl}-5-(1H-pyrazol-4-yl)-pyrimidin-4-ylamine], it took 0.9 µM to reach half-maximal inhibition (IC50).
The same measure for `Nc1ncnc(N2CCN(C(CN3CCC3)c3ccc4c(c3)CCCC4)CC2)c1-c1cn[nH]c1` (stereo not drawn) [Example 122, 6-{4-[2-Azetidin-1-yl-1-(5,6,7,8-tetrahydro-naphthalen-2-yl)-ethyl]-piperazin-1-yl}-5-(1H-pyrazol-4-yl)-pyrimidin-4-ylamine]: 0.95 µM; for `Nc1ncnc(N2CCN(C(CN3CCC3)c3ccc4c(c3)CCCC4)CC2)c1-c1ccc(F)cc1` (stereo not drawn) [Example 123, 6-{4-[2-Azetidin-1-yl-1-(5,6,7,8-tetrahydro-naphthalen-2-yl)-ethyl]-piperazin-1-yl}-5-(4-fluoro-phenyl)-pyrimidin-4-ylamine]: 0.36 µM.
For `Nc1ncnc(N2CCN(C(CN3CCC3)c3cccc(F)c3F)CC2)c1-c1cn[nH]c1` (stereo not drawn) [Example 124, 6-{4-[2-Azetidin-1-yl-1-(2,3-difluoro-phenyl)-ethyl]-piperazin-1-yl}-5-(1H-pyrazol-4-yl)-pyrimidin-4-ylamine], half-maximal inhibition (IC50) required 3.4 µM.
